Source: patent US20020051795A1, “ASCORBIC ACID AS AN ADJUVANT IN THE REMOVAL OF VASCULAR OCCLUSIONS” (priority 1997, published 2002)

System: patients at risk for a vascular occlusion
Assay: ascorbic acid infusion as adjuvant to thrombolytic treatment (streptokinase or heparin) in patients, compared with patients receiving no ascorbic acid
Assay type: in vivo, humans
Details: 20 patients; infusion of 70 ml of a 15% ascorbic acid solution diluted with physiological saline, pH 6.0 to 7.0, over four hours, with streptokinase (1.0×106 units) or heparin 2.5 mg/kg; versus equal number of patients with no ascorbic acid infusion but otherwise the same therapy
Description: Treatment of a patient threatened by a vascular occlusion is administered, for example, by first giving the patient streptokinase (1.0×106 units) or heparin in a dose of 2.5 mg/kg […] in the form of an infusion over a period of 30 minutes. At the same time, the patient receives over a period of four hours an infusion of 70 ml of a 15% ascorbic acid solution diluted with physiological saline solution and adjusted to a pH of 6.0 to 7.0. The patient's condition is monitored continuously by an electrocardiogram. A group of 20 patients at risk for a vascular occlusion were treated by the procedure described above and compared with an equal number of patients receiving no ascorbic acid infusion during the operation but otherwise the same therapy.

## O=C1O[C@H]([C@@H](O)CO)C(O)=C1O [ascorbic acid]
  complications during the operation and during the subsequent two-week observation phase: significantly fewer complications
